Reference: patent US20080033026A1, “Antimicrobial compositions, methods and systems” (priority 2006, published 2008)

Columns and labels:
[1] = Solubility studies in water and isopropanol (GC/FID); assay type: physicochemical; conditions: mg 9-decenoic acid/g solvent
Method: For the antimicrobial agents of Formulae I-III, the solubility in an aqueous and an alcohol environment was studied. Solubility studies were carried out with the sodium (Na) and potassium (K) salts of 9-decenoic acid in water and isopropanol (IPA). Six samples were analyzed. The samples were as follows: Na salt in water, Na salt in IPA, K salt in water, K salt in IPA, 9-decenoic acid (protonated) in water, 9-decenoic acid (protonated) in IPA. For the protonated form of the acids, the samples were acidified and diluted in IPA and subjected to analysis by gas chromatography/flame ionization detector (GC/FID). The same procedure was followed for the Na and K salts in IPA. For the Na and K salts in water, the samples were acidified and then extracted with petroleum ether. The petroleum ether was then evaporated, and the samples were reconstituted in IPA, acidified and subjected to analysis by GC/FID. Concentrations were calculated by comparing the peak area of the sample to a calibration table of 9-decenoic acid. The calibration curve was linear from 1 mg/g to 500 mg/g. Results are reported in mg/g (mg 9-decenoic acid/g solvent).

Pseudomonas straminea = assay: Growth inhibition in MRS medium at various pH levels (OD600); assay type: cell-based; conditions: 0.075% w/v (as 9DA)
[2] = system: all organisms tested in Tables 15-17 with the exception of Serratia marcescens; assay: Growth inhibition in MRS medium at various pH levels, organisms of Tables 15-17 except Serratia marcescens; assay type: cell-based
Method: (§1) Efficacy of potassium salts of 9-DA was tested at various pH levels against the following: Serratia marcescens ATCC 990, and Bacillus cereus ATCC 14579.
(§2) Stock cultures of each organism were transferred into MRS liquid medium. MRS medium (Difco 288130) was purchased from Becton, Dickinson and Company, Sparks, Md.
(§3) The efficacy of potassium salts of 9-DA (K-9-DA) was tested at different concentrations and pH levels, including 6.75 (unadjusted), 7.5, and 8.5.
The selected organisms were incubated overnight in 5 ml of MRS medium at 35° C. and 250 rpm. MRS media with K-9-DA were prepared, along with a control of straight media (no antimicrobial added). The antimicrobial agents were added by weight/volume percent to the media. The purity of the composition, 99% for K-9-DA, was taken into account. The pH adjustments to 7.5 and 8.5 were done with 50% potassium hydroxide. Filter sterilization was used instead of autoclaving to prevent adverse chemical reactions at higher pH and temperature. The target for initial cell density was 10^5 to 10^6 cfu/ml. According to the McFarland standard, 0.01 OD600 is equivalent to approximately 10^8 cfu/ml. To achieve the proper dilution, 30 μl of overnight culture diluted to 0.01 OD600 was added to the 3 ml of media in each tube. […] OD600 readings were taken at 0, 19, 25.5, 42.5 and 49 hours. […]

[3] = system: Bacillus subtilis ATCC 6051; assay: Growth inhibition in MRS medium (OD600); assay type: cell-based; conditions: n = 2
Method: (§4) Efficacy of potassium salts of 9-DA were determined through incubation of the following organisms in the presence of varying concentrations of the potassium salt: Serratia marcescens ATCC 990, Pseudomonas straminea ATCC 33636, Bacillus subtilis ATCC 6051, Bacillus licheniformis ATCC 14580, Bacillus cereus ATCC 14579, Pediococcus acidilactici ATCC 8042, and Lactobacillus casei ATCC 334.
as §2
(§5) The efficacy of different levels of potassium salts of 9-DA (K-9-DA) was tested depending on the organism to inhibit the growth of various microorganisms indicated above.
(§6) The selected organisms were incubated overnight in 5 ml of MRS medium at 35° C. and 250 rpm. MRS media with K-9-DA were prepared, along with a control of straight media (no antimicrobial added). The concentrated antimicrobial agents were diluted with the appropriate media required for the respective microorganisms, to reach the required concentrations for the studies as indicated below. The antimicrobial agents were added by weight/volume percent on an ‘as 9-DA’ basis to the media. The purity of the antimicrobial agent (99% for K-9-DA) was taken into account. The pH of the medium was not adjusted. The target for initial cell density was 10^5 to 10^6 cfu/ml. According to the McFarland standard, 0.01 OD600 is equivalent to approximately 10^8 cfu/ml. To achieve the proper dilution, 30 μl of overnight culture diluted to 0.01 OD600 was added to the 3 ml of media in each tube. The tubes were incubated at 35° C. Treatments were all done in duplicate. All strains were shaken at 250 rpm, with the exception of Lactobacillus (because it is anaerobic). OD600 readings were taken at 0, 4, 17, 23 and 47 hours.
(§7) “Percent reduction in comparison with control” was defined as (1−abs. of treatment/abs. of control)×100.

[4] = system: Serratia marcescens ATCC 990; assay: Growth inhibition in MRS medium (OD600); assay type: cell-based; conditions: n = 2
Method: as §4, §2, §5, §6, §7

[5] = system: Lactobacillus casei ATCC 334; assay: Growth inhibition in MRS medium (OD600); assay type: cell-based; conditions: n = 2
Method: as §4, §2, §5, §6, §7

[6] = system: Pseudomonas straminea ATCC 33636; assay: Growth inhibition in MRS medium (OD600); assay type: cell-based; conditions: n = 2
Method: as §4, §2, §5, §6, §7

[7] = system: Pediococcus acidilactici ATCC 8042; assay: Growth inhibition in MRS medium (OD600); assay type: cell-based; conditions: n = 2
Method: as §4, §2, §5, §6, §7

[8] = system: Bacillus licheniformis ATCC 14580; assay: Growth inhibition in MRS medium (OD600); assay type: cell-based; conditions: n = 2
Method: as §4, §2, §5, §6, §7

[9] = system: Bacillus cereus ATCC 14579; assay: Growth inhibition in MRS medium (OD600); assay type: cell-based; conditions: n = 2
Method: as §4, §2, §5, §6, §7

[10] = system: organisms of Table 14 with the exception of Serratia marcescens, Bacillus licheniformis, and Lactobacillus casei; assay: Growth inhibition in MRS medium (OD600), organisms of Table 14 except Serratia marcescens, Bacillus licheniformis, Lactobacillus casei; assay type: cell-based; conditions: all concentrations tested
Method: as §4, §2, §5
The selected organisms were incubated overnight in 5 ml of MRS medium at 35° C. and 250 rpm. MRS media with K-9-DA were prepared, along with a control of straight media (no antimicrobial added). The concentrated antimicrobial agents were diluted with the appropriate media required for the respective microorganisms, to reach the required concentrations for the studies as indicated below. The antimicrobial agents were added by weight/volume percent on an ‘as 9-DA’ basis to the media. The purity of the antimicrobial agent (99% for K-9-DA) was taken into account. The pH of the medium was not adjusted. […] OD600 readings were taken at 0, 4, 17, 23 and 47 hours. […]

[11] = system: Serratia marcescens ATCC 990; assay: Growth inhibition in MRS medium at various pH levels (OD600); assay type: cell-based; conditions: 0.1% w/v (as 9DA)
Method: as §1, §2, §3
(§8) The selected organisms were incubated overnight in 5 ml of MRS medium at 35° C. and 250 rpm. MRS media with K-9-DA were prepared, along with a control of straight media (no antimicrobial added). The antimicrobial agents were added by weight/volume percent to the media. The purity of the composition, 99% for K-9-DA, was taken into account. The pH adjustments to 7.5 and 8.5 were done with 50% potassium hydroxide. Filter sterilization was used instead of autoclaving to prevent adverse chemical reactions at higher pH and temperature. The target for initial cell density was 10^5 to 10^6 cfu/ml. According to the McFarland standard, 0.01 OD600 is equivalent to approximately 10^8 cfu/ml. To achieve the proper dilution, 30 μl of overnight culture diluted to 0.01 OD600 was added to the 3 ml of media in each tube. The tubes were incubated at 35° C. with the exception of Pseudomonas strains which were incubated at 30° C. Treatments were all done in duplicate. All strains were shaken at 250 rpm. OD600 readings were taken at 0, 19, 25.5, 42.5 and 49 hours.
(§9) “Percent reduction in growth vs. control” was defined as (1−abs. of treatment/abs. of control)×100.

[12] = system: Bacillus cereus ATCC 14579; assay: as above; assay type: cell-based; conditions: 0.1% w/v (as 9DA)
Method: as §1, §2, §3, §8, §9

## C=CCCCCCCCC(=O)O.[K] [Potassium-9 Decenoic Acid]
[1]; in isopropanol
  Solubility, Concentration: 10 mg/g
[1]; in water
  Solubility, Concentration: 240 mg/g
Pseudomonas straminea; Non-pH adjusted (6.75)
  % reduction in growth vs. control: 98.6%
Pseudomonas straminea; pH 7.5
  % reduction in growth vs. control: 96.2%
Pseudomonas straminea; pH 8.5
  % reduction in growth vs. control: 93.9%
[2]; pH 7.5, concentrations of Tables 15-17
  reduction in growth: 96%
[2]; pH 8.5, concentrations of Tables 15-17
  reduction in growth: 94%
[3]; 0.05% w/v 9DA from K9DA
  % reduction in growth vs. control: 97.3%
  Abs at 600 nm: 0.157
[3]; 0.075% w/v 9DA from K9DA
  % reduction in growth vs. control: 98.4%
  Abs at 600 nm: 0.094
[4]; 0.075% w/v 9DA from K9DA
  % reduction in growth vs. control: 97.7%
  Abs at 600 nm: 0.181
[4]; 0.1% w/v 9DA from K9DA
  % reduction in growth vs. control: 94.6%
  Abs at 600 nm: 0.412
[5]; 0.05% w/v 9DA from K9DA
  % reduction in growth vs. control: 93.3%
  Abs at 600 nm: 0.461
[5]; 0.075% w/v 9DA from K9DA
  % reduction in growth vs. control: 96.9%
  Abs at 600 nm: 0.211
[6]; 0.05% w/v 9DA from K9DA
  % reduction in growth vs. control: 96.9%
  Abs at 600 nm: 0.190
[6]; 0.075% w/v 9DA from K9DA
  % reduction in growth vs. control: 97.3%
  Abs at 600 nm: 0.165
[7]; 0.025% w/v 9DA from K9DA
  % reduction in growth vs. control: 100.0%
  Abs at 600 nm: −0.038
[7]; 0.05% w/v 9DA from K9DA
  % reduction in growth vs. control: 96.1%
  Abs at 600 nm: 0.224
[8]; 0.075% w/v 9DA from K9DA
  % reduction in growth vs. control: 88.6%
  Abs at 600 nm: 0.300
[8]; 0.1% w/v 9DA from K9DA
  % reduction in growth vs. control: 99.1%
  Abs at 600 nm: 0.023
[9]; 0.075% w/v 9DA from K9DA
  % reduction in growth vs. control: 98.4%
  Abs at 600 nm: 0.093
[9]; 0.1% w/v 9DA from K9DA
  % reduction in growth vs. control: 96.2%
  Abs at 600 nm: 0.216
[10]
  reduction in growth when compared to controls: ≥ 96%
[11]; Non-pH adjusted (6.75)
  % reduction in growth vs. control: 98.5%
[11]; pH 7.5
  % reduction in growth vs. control: 18.5%
[11]; pH 8.5
  % reduction in growth vs. control: 37.4%
[12]; Non-pH adjusted (6.75)
  % reduction in growth vs. control: 96.5%
[12]; pH 7.5
  % reduction in growth vs. control: 96.2%
[12]; pH 8.5
  % reduction in growth vs. control: 93.9%
